Measurements as given in PubChem BioAssay (NCI).
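Five compound concentrations were applied to cells in 96-well plates for 48 hours; endpoints were derived by simple linear interpolation of the resulting dose-response curve. GI50 marks 50% less growth. The concentration for full growth arrest is given as TGI.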

Key:
Assay in all cases: NCI tumour cell line growth inhibition, 48 h
RXF 393 renal = tested on: RXF 393 renal
OVCAR-4 ovarian = tested on: OVCAR-4 ovarian
SNB-19 CNS = tested on: SNB-19 CNS
NCI/ADR-RES ovarian = tested on: NCI/ADR-RES ovarian
HOP-92 NSCLC = tested on: HOP-92 NSCLC
CCRF-CEM leukemia = tested on: CCRF-CEM leukemia
UACC-62 melanoma = tested on: UACC-62 melanoma
HCT-116 colon = tested on: HCT-116 colon
SF-539 CNS = tested on: SF-539 CNS
HL-60(TB) leukemia = tested on: HL-60(TB) leukemia

Row | SMILES | GI50 (RXF 393 renal) [µM] | TGI (RXF 393 renal) [µM] | GI50 (OVCAR-4 ovarian) [µM] | TGI (OVCAR-4 ovarian) [µM] | GI50 (SNB-19 CNS) [µM] | TGI (SNB-19 CNS) [µM] | GI50 (NCI/ADR-RES ovarian) [µM] | TGI (NCI/ADR-RES ovarian) [µM] | GI50 (HOP-92 NSCLC) [µM] | TGI (HOP-92 NSCLC) [µM] | GI50 (CCRF-CEM leukemia) [µM] | TGI (CCRF-CEM leukemia) [µM] | GI50 (UACC-62 melanoma) [µM] | TGI (UACC-62 melanoma) [µM] | GI50 (HCT-116 colon) [µM] | TGI (HCT-116 colon) [µM] | GI50 (SF-539 CNS) [µM] | TGI (SF-539 CNS) [µM] | GI50 (HL-60(TB) leukemia) [µM] | TGI (HL-60(TB) leukemia) [µM]
1 | O=C1C(Cl)=C(Nc2cccc(O)c2)C(=O)N1c1cccc(Cl)c1Cl | 18.4 | 42.4 | 15.6 | 40.5 | 19.1 | 82.9 | 18.9 | 46 | 0.262 | 5.91 | 8.38 | 50.4 | 14.6 | 34 | 11.2 | 23.2 | – | – | – | –
2 | O=C([O-])c1ccccc1Nc1ccccc1[O-].[Ni+3].[OH3+].[OH3+].[OH3+] | > 100 | > 100 | > 100 | > 100 | > 100 | > 100 | – | – | 31.4 | > 100 | > 100 | > 100 | > 100 | > 100 | > 100 | > 100 | > 100 | > 100 | – | –
3 | C[C@]12CC[C@H]3[C@@H](C[C@@H]4N=C(c5ccc(O)cc5)S[C@@]45C[C@H](O)CC[C@]35C)[C@@H]1CC[C@@H]2O | 0.377 | 1.31 | 7.24 | > 100 | 7.95 | > 100 | 6.77 | > 100 | – | – | 2.05 | 47.2 | 2.43 | 7.64 | 2.37 | 27.4 | 0.454 | 3.23 | 4.09 | > 100
4 | CC1(C)OC(=O)C(=C2CC(c3ccccc3)c3ccccc32)C(=O)O1 (stereo not given) | – | > 100 | – | > 100 | – | > 100 | – | – | – | > 100 | – | > 100 | – | – | – | > 100 | – | > 100 | – | > 100
5 | Cc1cc2c(c(N)c1C)C(=O)c1ccccc1C2=O | – | > 100 | – | 41.4 | – | > 100 | – | – | – | 58.9 | – | > 100 | – | 35.5 | – | 50.4 | – | 31.5 | – | > 100
6 | CCC/C(=N\NC(=O)c1cc2ccccc2cc1O)C(CC)C(=O)CCC(=O)N(Cc1ccccc1)Cc1ccccc1 (stereo not given) | – | > 100 | – | > 100 | – | > 100 | – | – | – | > 100 | – | 41.7 | – | 70 | – | > 100 | – | > 100 | – | 40.1
7 | CCN(CC(COc1ccc2c(c1)[n+]([O-])nc(N)[n+]2[O-])OC(C)=O)C(C)=O (stereo not given) | – | – | – | > 100 | – | > 100 | – | > 100 | – | – | – | > 100 | – | > 100 | – | > 100 | – | > 100 | – | > 100
8 | ClC[Si]12OCCN(CCO1)CCO2 | – | > 100 | – | – | – | > 100 | – | – | – | > 100 | – | > 100 | – | > 100 | – | > 100 | – | > 100 | – | > 100
9 | O=C(O)C1OC(Oc2cc(O)c3c(=O)cc(-c4ccc(O)cc4)oc3c2)C(O)C(O)C1O (stereo not given) | – | – | – | > 100 | – | > 100 | – | – | – | – | – | – | – | – | – | > 100 | – | > 100 | – | > 100
10 | Cc1nc2cc(N)c(Cl)cc2[nH]1 | – | – | – | – | – | > 100 | – | > 100 | – | – | – | > 100 | – | > 100 | – | > 100 | – | – | – | > 100
11 | CC1=C(c2cc(C(=O)Nc3nccs3)nc(NC#N)n2)Sc2ccccc2N1 | – | – | – | > 100 | – | > 100 | – | – | – | > 100 | – | > 100 | – | > 100 | – | > 100 | – | > 100 | – | > 100
12 | COc1ccc(C#CCC(OC2OC(CO)C(O)C(O)C2O)C(O)c2ccc(OC)c(OC)c2)cc1OC (stereo not given) | – | > 100 | – | > 100 | – | > 100 | – | – | – | – | – | > 100 | – | > 100 | – | > 100 | – | > 100 | – | > 100
13 | COc1ccc(Cn2c(Br)c3c(c2-c2cc(OC)c(OC)c(OC)c2)CCc2sc(NC(C)=O)nc2-3)cc1 | 2.24 | 10.7 | 3.49 | > 100 | > 100 | > 100 | 4.97 | > 100 | 1.88 | 9.64 | – | – | 4.29 | > 100 | 3.4 | 14.6 | 2.41 | 6.79 | 3.27 | 8.06
14 | CCC(/C(=N\Nc1c(Cl)cc(Cl)cc1Cl)c1ccccc1)n1ccnc1C (stereo not given) | – | – | – | 30 | – | 28.5 | – | – | – | 19.7 | – | > 100 | – | 36.7 | – | 20.8 | – | 31.1 | – | 14.6
15 | CC(C)CC(=O)NS(=O)(=O)c1ccccc1 | – | > 100 | – | > 100 | – | > 100 | – | – | – | > 100 | – | > 100 | – | > 100 | – | > 100 | – | > 100 | – | > 100
16 | Oc1cc2c(cc1O)-c1[nH]ncc1CC2 | – | – | – | – | – | > 100 | – | – | – | 66.4 | – | 47.7 | – | 90.4 | – | > 100 | – | > 100 | – | 76.6
17 | C=C(CN1CCN(c2cccc(F)c2)CC1)c1ccc(C(=O)Nc2ccccc2N)cc1 | 0.563 | 6.09 | 3.35 | 33.9 | 1.95 | > 100 | 0.307 | 1.92 | 0.6 | 6.97 | – | – | 2.02 | 63.5 | 1.08 | 12.5 | 1.45 | 5.77 | 0.357 | 2.26
18 | O=C(c1ccc2c3c(ccc(C(=O)C(F)(F)F)c13)CC2)C(F)(F)F | – | > 100 | – | > 100 | – | > 100 | – | – | – | 76.2 | – | – | – | > 100 | – | > 100 | – | > 100 | – | –
19 | CCN(CC)CCOc1ccc(C(=C2CCCCC2)c2ccc(OCCN(CC)CC)cc2)cc1 | – | 3.14 | – | 4.77 | – | 4.03 | – | – | – | 3.94 | – | 3.25 | – | – | – | 2.54 | – | 2.96 | – | 2.56
20 | CC(=O)OCC1OC(Sc2ccccn2)C=CC1OC(C)=O (stereo not given) | – | > 100 | – | > 100 | – | > 100 | – | – | – | > 100 | – | > 100 | – | > 100 | – | > 100 | – | > 100 | – | > 100
21 | Cc1cccc(NC(=O)CC#N)c1Cl | – | – | – | – | – | > 100 | – | – | – | > 100 | – | > 100 | – | > 100 | – | > 100 | – | > 100 | – | > 100
